The nature of series [1]: Dynamic vapor sorption/desorption (DVS). The settings on record: for weight gain, adsorption: 5%-95% RH; for weight loss, desorption: 95%-5% RH. Type of series: physicochemical. The method, then:
Moisture sorption/desorption data were collected on a VTI SGA-100 Vapor Sorption Analyzer. Sorption and desorption data were collected over a range of 5% to 95% relative humidity (RH) at 10% RH intervals under a nitrogen purge. Samples were not dried prior to analysis. Equilibrium criteria used for analysis were less than 0.0100% weight change in 5 minutes, with a maximum equilibration time of 3 hours if the weight criterion was not met. Data were not corrected for the initial moisture content of the samples. Sodium chloride and polyvinypyrrolidine were used as calibration standards.

Series [2] can be described thus: Approximate solubility, solvent addition method. The conditions noted are these: ambient temperature. Type of series: physicochemical. The method, then:
A weighed sample of SEQ ID NO:1 (a polypeptide of amino acids F-L-P—S) was treated with aliquots of the test solvent at ambient temperature. Complete dissolution of the test material was determined by visual inspection. Solubility was estimated based on the total solvent used to provide complete dissolution. The actual solubility may be greater than the value calculated because of the use of solvent aliquots that were too large or due to a slow rate of dissolution. […] If complete dissolution was achieved as a result of only one aliquot addition, the solubility is expressed as “greater than”.

A word on the solubility: it is the concentration that dissolves in the medium under given conditions.

Where a SMILES comes first, the peptide text is derived from it.

Regarding `CC(C)CC(NC(=O)C(N)Cc1ccccc1)C(=O)N1CCCC1C(=O)NC(CO)C(=O)O` (centres unmarked) [SEQ ID NO: 1] (H-FLPS-OH; configuration not given here), the “weight gain, adsorption” value in series [1] was 5%-95% RH; 25.0 w % (gain),; in series [1] (listed as SEQ ID NO:1) it was 25.0 w %. Moreover, the “weight loss, desorption” value was 95%-5% RH; 28.2 w % (loss) in series [1] and 28.2 w % in series [1] (listed as SEQ ID NO:1). Moreover, the “final weight loss after the desorption step” value in series [1] (at ~5% RH, relative to original weight) was found to be 4.4%. Further, in series [1] (on equilibration at ~5% RH, as received material), the initial weight loss was found to be 1.3%. In addition, the “weight gain on the sorption step” value in series [1] (up to ~95% RH, relative to original weight) is “approximately 23.7%”. Also, the solubility in series [2] (1-Butanol) was at least 43 mg/mL; in series [2] (2-Butanone), at least 20 mg/mL; in series [2] (2-Propanol), at least 20 mg/mL; in series [2] (Acetone) it was at least 40 mg/mL; in series [2] (Acetonitrile (ACN)) it was at least 19 mg/mL; in series [2] (Chloroform), at most 1.9 mg/mL. Besides, the solubility is at least 20 mg/mL in series [2] (Dichloromethane (DCM)); at least 52 mg/mL in series [2] (Ethanol (EtOH)); at least 20 mg/mL in series [2] (Ethyl acetate (EtOAc)); at most 2 mg/mL in series [2] (Heptane); at most 2.7 mg/mL in series [2] (Isopropyl ether); at least 50 mg/mL in series [2] (Methanol (MeOH)). Further, the solubility in series [2] (Pentane) is at most 2 mg/mL; in series [2] (Tetrahydrofuran (THF)), at least 44 mg/mL; in series [2] (Toluene) it was at most 3.6 mg/mL; in series [2] (Water, visual inspection) it was at least 60 mg/mL.

These data come from US8217141B2, “Crystalline and amorphous forms of peptide” (Neopro Labs, LLC, priority 2007, dated 2012).
